The results in this text go back to PMC2980575 (Analytical biochemistry, 2010).

Test [1] concerns the target T1, HDAC8 (Homo sapiens, UniProt Q9BY41).
T1 sequence (Q9BY41 1-377): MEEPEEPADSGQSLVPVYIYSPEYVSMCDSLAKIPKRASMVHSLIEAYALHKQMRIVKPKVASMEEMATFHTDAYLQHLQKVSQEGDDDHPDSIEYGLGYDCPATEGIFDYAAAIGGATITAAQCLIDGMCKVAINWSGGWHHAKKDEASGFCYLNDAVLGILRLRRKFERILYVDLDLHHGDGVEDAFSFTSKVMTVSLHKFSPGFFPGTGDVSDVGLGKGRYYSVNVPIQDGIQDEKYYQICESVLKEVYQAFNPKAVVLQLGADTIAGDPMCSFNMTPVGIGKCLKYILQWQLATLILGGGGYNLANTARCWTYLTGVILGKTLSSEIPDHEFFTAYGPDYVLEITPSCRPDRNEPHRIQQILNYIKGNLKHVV
Nature of the test: Fluorescence displacement method with c-SAHA as probe, Dynafit analysis.

Test [2] has as its target T1, HDAC8. The experiment in a line: Trypsin-coupled steady-state kinetic assay with Fluor de Lys substrate. The test is classed as biochemical.
Test [3] deals with T1, HDAC8. Nature of the test: Stopped-flow transient kinetics, c-SAHA as competitive ligand. It counts as binding. The conditions noted are these: pH 7.5, read-out: koff (dissociation off-rate).
Test [4] has as its target T1, HDAC8. Nature of the test: Direct fluorescence titration of c-SAHA with HDAC8. It counts as binding.

`CN(C)c1ccc(C(=O)NCCCCCCC(=O)NO)cc1` [M344, 4-Dimethylamino-N-(6-hydroxycarbamoylhexyl)-benzamide] gave a Kd on HDAC8 [1] of 320 ± 90 nM. This compound returned an inhibition constant Ki on HDAC8 [2] of 180 ± 20 nM. The koff on HDAC8 [3] is 1.05 ± 0.12 s⁻¹.
In the case of `Cc1cc(=O)oc2cc(NC(=O)CCCCCCC(=O)NO)ccc12` [c-SAHA, N^1-hydroxy-N^8-(4-methyl-2-oxo-2H-chromen-7-yl)octanediamide], the Ki at HDAC8 [2] was 160 nM. Besides, the “Ki of c-SAHA lower than that of parent compound SAHA” value on HDAC8 [2] (steady-state kinetic data, c-SAHA versus SAHA) is reported as “about 5 fold”. Also, the affinity at HDAC8 [4], expressed as Kd, was 160 ± 20 nM.

A word on the Kd: it is the free concentration of one partner at which half of the binding sites on the other are occupied at equilibrium, for simple one-to-one binding. Lower therefore signals a tighter complex. A word on the Ki: it is the equilibrium dissociation constant of an inhibitor or competing ligand from its target. A higher Ki goes with weaker binding. Usually koff stands for the rate constant with which the complex falls apart.
